# Reference: patent publication US20090048303A1, “Indole-2-carboxamidine derivatives as nmda receptor antago” (priority 2004, published 2009)
# Molecular target: T1, NMDA receptors of rat cortical neurons (Rattus norvegicus, UniProt Q00960)
# T1 construct: primary neocortical cell cultures derived from 17 day old Charles River rat embryos; endogenous in cells; host or cells: primary rat embryonic (E17) neocortical cell culture, 3-7 days in vitro
# Assay: NMDA antagonist potency by intracellular calcium measurement (plate reader fluorimeter) in rat cortical cell culture
# Type: cell-based
# Settings: not given
# Protocol: Assessment of NMDA Antagonist Potency In Vitro by Measurement of Intracellular Calcium Concentration with a Plate Reader Fluorimeter in Rat Cortical Cell Culture
# The intracellular calcium measurements were carried out on primary neocortical cell cultures derived from 17 day old Charles River rat embryos (for the details on the preparation of neocortical cell culture see Johnson, M. I.; Bunge, R. P. (1992): Primary cell cultures of peripheral and central neurons and glia. In: Protocols for Neural Cell Culture, eds: Fedoroff, S.; Richardson A., The Humana Press Inc., 51-75.) After isolation the cells were plated onto standard 96-well microplates and the cultures were maintained in an atmosphere of 95% air-5% CO2 at 37° C. until the calcium measurements.
# The cultures were used for the intracellular calcium measurements after 3-7 days in vitro. Before the measurement the cells were loaded with a fluorescent Ca^2+-sensitive dye, Fluo-4/AM (2 μM). To stop the loading the cells were washed twice with the solution used for the measurement (140 mM NaCl, 5 mM KCl, 2 mM CaCl2, 5 mM HEPES, 5 mM HEPES-Na, 20 mM glucose, 10 μM glycine, pH=7.4). After washing the test compounds were added to the cells in the above solution (90 μl/well). Intracellular calcium measurements were carried out with a plate reader fluorimeter: elevation of Fluo-4-fluorescence and so, intracellular calcium was induced by application of 40 μM NMDA. Inhibitory potency of the test compounds was assessed by measuring the reduction in the calcium elevation in the presence of different concentrations of the compounds.
# (§1) Dose-response curves and IC50 values were calculated by using data derived from at least three independent experiments. Inhibitory potency of a compound at a single concentration point was expressed as percent inhibition of the NMDA response. Sigmoidal concentration-inhibition curves were fit to the data and IC50 values were determined as the concentration that produces half of the maximal inhibition caused by the compound.
# T1 sequence (Q00960 27-1482, other chains not shown): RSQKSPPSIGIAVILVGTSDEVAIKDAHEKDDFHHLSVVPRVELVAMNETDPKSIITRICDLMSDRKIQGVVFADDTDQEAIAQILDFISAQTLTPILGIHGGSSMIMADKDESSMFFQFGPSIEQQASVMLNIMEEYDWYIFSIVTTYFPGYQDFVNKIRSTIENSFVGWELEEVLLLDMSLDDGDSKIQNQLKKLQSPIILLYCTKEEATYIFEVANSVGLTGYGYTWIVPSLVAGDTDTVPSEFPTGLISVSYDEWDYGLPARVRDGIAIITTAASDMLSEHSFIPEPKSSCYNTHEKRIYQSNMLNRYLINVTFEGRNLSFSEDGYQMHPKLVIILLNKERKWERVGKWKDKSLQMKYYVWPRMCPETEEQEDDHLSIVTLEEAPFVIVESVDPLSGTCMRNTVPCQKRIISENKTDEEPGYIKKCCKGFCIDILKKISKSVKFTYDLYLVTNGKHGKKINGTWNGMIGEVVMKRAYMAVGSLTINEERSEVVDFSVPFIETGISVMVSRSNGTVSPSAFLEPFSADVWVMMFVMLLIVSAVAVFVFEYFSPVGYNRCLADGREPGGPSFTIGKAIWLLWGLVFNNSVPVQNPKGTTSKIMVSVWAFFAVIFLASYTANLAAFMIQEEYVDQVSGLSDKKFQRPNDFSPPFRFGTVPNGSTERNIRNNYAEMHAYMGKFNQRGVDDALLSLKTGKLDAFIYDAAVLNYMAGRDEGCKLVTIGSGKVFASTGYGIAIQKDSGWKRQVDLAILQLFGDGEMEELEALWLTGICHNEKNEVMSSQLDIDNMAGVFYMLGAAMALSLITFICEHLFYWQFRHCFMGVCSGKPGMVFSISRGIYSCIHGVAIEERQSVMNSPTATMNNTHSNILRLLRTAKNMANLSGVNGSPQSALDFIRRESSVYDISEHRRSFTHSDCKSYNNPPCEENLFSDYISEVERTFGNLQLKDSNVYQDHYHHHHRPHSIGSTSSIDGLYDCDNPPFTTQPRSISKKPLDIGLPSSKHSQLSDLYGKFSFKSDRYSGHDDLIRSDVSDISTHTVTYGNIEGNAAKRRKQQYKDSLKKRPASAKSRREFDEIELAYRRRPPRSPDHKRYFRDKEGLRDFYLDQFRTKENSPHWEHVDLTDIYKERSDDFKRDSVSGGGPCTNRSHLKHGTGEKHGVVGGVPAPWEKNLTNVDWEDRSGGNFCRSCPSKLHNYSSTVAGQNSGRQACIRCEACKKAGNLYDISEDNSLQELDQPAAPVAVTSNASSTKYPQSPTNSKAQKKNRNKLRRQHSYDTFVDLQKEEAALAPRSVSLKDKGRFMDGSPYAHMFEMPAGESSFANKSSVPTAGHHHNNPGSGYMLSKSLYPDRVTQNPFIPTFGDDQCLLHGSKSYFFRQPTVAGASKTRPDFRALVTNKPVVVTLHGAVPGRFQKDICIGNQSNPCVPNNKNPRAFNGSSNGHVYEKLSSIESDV
row,Compound,IC50 [nM]
1,"CC(CN1CCC(Cc2ccccc2)CC1)C(O)c1ccc(O)cc1 (stereo not drawn) [Ro 25.6981, R-(R*,S*)-1-(4-hydroxyphenyl)-2-methyl-3-[4-(phenylmethyl)piperidin-1-yl]-1-propanol, reference compound]",159

# Same assay, conditions: rat cortical cells, 40 μM NMDA, fluorimetric method; read-out: Cortical cells IC50
row,Compound,IC50 [nM]
1,"O=c1[nH]c2ccc([S+]([O-])CCN3CCC(Cc4ccc(F)cc4)CC3)cc2o1 (stereo not shown) [CI-1041, 6-{2-[4-(4-fluoro-benzyl)-piperidin-1-yl]-ethanesulfinyl}-3H-benzooxazol-2-one, reference compound]",6.6
2,"Cc1ccc(CC2(O)CCN(CCOc3ccc(O)cc3)CC2)cc1 [Co-101244, 1-[2-(4-hydroxyphenoxy)ethyl]-4-hydroxy-4-(4-methylbenzyl)piperidine, reference compound]",23
3,CCOc1ccccc1CNC(=N)c1cc2ccccc2[nH]1 [Compound 19],75
4,N=C(NCc1ccccc1Br)c1cc2ccccc2[nH]1 [Compound 25],277
5,N=C(NCc1cccc(Br)c1)c1cc2ccccc2[nH]1 [Compound 26],418
6,N=C(NCc1ccccc1F)c1cc2ccccc2[nH]1 [Compound 29],232
7,N=C(NCc1cc(F)ccc1F)c1cc2ccccc2[nH]1 [Compound 30],224
8,N=C(NCc1c(F)cccc1F)c1cc2ccccc2[nH]1 [Compound 31],143
9,Cc1ccccc1C/N=C(\N)c1cc2ccccc2[nH]1 [Compound 32],170
10,COc1ccc(OC)c(CNC(=N)c2cc3ccccc3[nH]2)c1 [Compound 35],341
11,COc1cccc(OC)c1CNC(=N)c1cc2ccccc2[nH]1 [Compound 36],5.4
12,N=C(NCc1cc(Cl)cc(Cl)c1)c1cc2ccccc2[nH]1 [Compound 38],159
13,COc1cccc(CNC(=N)c2cc3cc(F)ccc3[nH]2)c1 [Compound 57],211
14,CCOc1ccccc1CNC(=N)c1cc2cc(F)ccc2[nH]1 [Compound 59],51
15,N=C(NCc1cc(F)ccc1F)c1cc2cc(F)ccc2[nH]1 [Compound 67],359
16,Cc1ccccc1CNC(=N)c1cc2cc(F)ccc2[nH]1 [Compound 68],160
17,N=C(NCc1cc(F)cc(F)c1)c1cc2cc(F)ccc2[nH]1 [Compound 70],594
18,COc1ccc(OC)c(CNC(=N)c2cc3cc(F)ccc3[nH]2)c1 [Compound 71],453
19,COc1cccc(OC)c1C/N=C(\N)c1cc2cc(F)ccc2[nH]1 [Compound 72],17
20,N=C(NCc1cc(Cl)cc(Cl)c1)c1cc2cc(F)ccc2[nH]1 [Compound 73],209
21,N=C(NCc1cccc(F)c1)c1cc2cc(Cl)ccc2[nH]1 [Compound 81],432
22,COc1ccc(CNC(=N)c2cc3cc(Cl)ccc3[nH]2)c(OC)c1 [Compound 83],369
23,N=C(NCc1ccccc1Cl)c1cc2cc(Cl)ccc2[nH]1 [Compound 87],422
24,COc1cccc(CNC(=N)c2cc3cc(Cl)ccc3[nH]2)c1 [Compound 92],319
25,CCOc1ccccc1CNC(=N)c1cc2cc(Cl)ccc2[nH]1 [Compound 94],213
26,N=C(NCc1cccnc1)c1cc2cc(Cl)ccc2[nH]1 [Compound 97],125

row,Compound,IC50 [nM]
1,N=C(NCc1cccc(Br)c1)c1cc2cc(Cl)ccc2[nH]1 [Compound 103],257
2,N=C(NCc1ccccc1OC(F)(F)F)c1cc2cc(Cl)ccc2[nH]1 [Compound 106],198
3,N=C(NCc1ccccc1F)c1cc2cc(Cl)ccc2[nH]1 [Compound 107],493
4,N=C(NCc1c(F)cccc1F)c1cc2cc(Cl)ccc2[nH]1 [Compound 108],742
5,Cc1ccccc1CNC(=N)c1cc2cc(Cl)ccc2[nH]1 [Compound 109],218
6,N=C(NCc1cc(F)cc(F)c1)c1cc2cc(Cl)ccc2[nH]1 [Compound 110],702
7,COc1ccc(OC)c(CNC(=N)c2cc3cc(Cl)ccc3[nH]2)c1 [Compound 111],417
8,COc1cccc(OC)c1C/N=C(\N)c1cc2cc(Cl)ccc2[nH]1 [Compound 112],69
9,COc1ccc2[nH]c(C(=N)NCc3ccccc3)cc2c1 [Compound 118],224
10,COc1ccc2[nH]c(C(=N)NCc3ccccc3C(F)(F)F)cc2c1 [Compound 119],401
11,COc1ccc(CNC(=N)c2cc3cc(OC)ccc3[nH]2)c(OC)c1 [Compound 123],129
12,COc1ccc2[nH]c(C(=N)NCc3ccc(OC)c(OC)c3)cc2c1 [Compound 126],519
13,COc1ccc2[nH]c(C(=N)NCc3cccc(Cl)c3)cc2c1 [Compound 127],373
14,COc1ccc2[nH]c(C(=N)NCc3cccc(C)c3)cc2c1 [Compound 128],220
15,COc1cccc(CNC(=N)c2cc3cc(OC)ccc3[nH]2)c1 [Compound 129],52
16,CCOc1ccccc1CNC(=N)c1cc2cc(OC)ccc2[nH]1 [Compound 131],57
17,COc1ccc2[nH]c(C(=N)NCc3cccnc3)cc2c1 [Compound 134],100
18,COc1ccc2[nH]c(C(=N)NCc3ccccc3Br)cc2c1 [Compound 138],232
19,COc1ccc2[nH]c(C(=N)NCc3cccc(Br)c3)cc2c1 [Compound 139],397
20,COc1ccc2[nH]c(C(=N)NCc3cc(F)ccc3F)cc2c1 [Compound 142],202
21,COc1ccc2[nH]c(C(=N)NCc3c(F)cccc3F)cc2c1 [Compound 143],158
22,COc1ccc2[nH]c(C(=N)NCc3cc(F)cc(F)c3)cc2c1 [Compound 145],318
23,COc1ccc(OC)c(CNC(=N)c2cc3cc(OC)ccc3[nH]2)c1 [Compound 146],287
24,COc1ccc2[nH]c(C(=N)NCc3c(OC)cccc3OC)cc2c1 [Compound 147],26
25,"O=C(CCN1CCC(Cc2ccc(F)cc2)CC1)c1ccc2[nH]c(=O)oc2c1 [EMD 95885, reference compound]",35

# Molecular target: T2, recombinant NMDA receptors NR1(−3)/NR2A (Homo sapiens, UniProt Q05586+Q12879)
# T2 construct: expressed in transfected cells
# T2 sequence (Q12879 23-1464, other chains not shown): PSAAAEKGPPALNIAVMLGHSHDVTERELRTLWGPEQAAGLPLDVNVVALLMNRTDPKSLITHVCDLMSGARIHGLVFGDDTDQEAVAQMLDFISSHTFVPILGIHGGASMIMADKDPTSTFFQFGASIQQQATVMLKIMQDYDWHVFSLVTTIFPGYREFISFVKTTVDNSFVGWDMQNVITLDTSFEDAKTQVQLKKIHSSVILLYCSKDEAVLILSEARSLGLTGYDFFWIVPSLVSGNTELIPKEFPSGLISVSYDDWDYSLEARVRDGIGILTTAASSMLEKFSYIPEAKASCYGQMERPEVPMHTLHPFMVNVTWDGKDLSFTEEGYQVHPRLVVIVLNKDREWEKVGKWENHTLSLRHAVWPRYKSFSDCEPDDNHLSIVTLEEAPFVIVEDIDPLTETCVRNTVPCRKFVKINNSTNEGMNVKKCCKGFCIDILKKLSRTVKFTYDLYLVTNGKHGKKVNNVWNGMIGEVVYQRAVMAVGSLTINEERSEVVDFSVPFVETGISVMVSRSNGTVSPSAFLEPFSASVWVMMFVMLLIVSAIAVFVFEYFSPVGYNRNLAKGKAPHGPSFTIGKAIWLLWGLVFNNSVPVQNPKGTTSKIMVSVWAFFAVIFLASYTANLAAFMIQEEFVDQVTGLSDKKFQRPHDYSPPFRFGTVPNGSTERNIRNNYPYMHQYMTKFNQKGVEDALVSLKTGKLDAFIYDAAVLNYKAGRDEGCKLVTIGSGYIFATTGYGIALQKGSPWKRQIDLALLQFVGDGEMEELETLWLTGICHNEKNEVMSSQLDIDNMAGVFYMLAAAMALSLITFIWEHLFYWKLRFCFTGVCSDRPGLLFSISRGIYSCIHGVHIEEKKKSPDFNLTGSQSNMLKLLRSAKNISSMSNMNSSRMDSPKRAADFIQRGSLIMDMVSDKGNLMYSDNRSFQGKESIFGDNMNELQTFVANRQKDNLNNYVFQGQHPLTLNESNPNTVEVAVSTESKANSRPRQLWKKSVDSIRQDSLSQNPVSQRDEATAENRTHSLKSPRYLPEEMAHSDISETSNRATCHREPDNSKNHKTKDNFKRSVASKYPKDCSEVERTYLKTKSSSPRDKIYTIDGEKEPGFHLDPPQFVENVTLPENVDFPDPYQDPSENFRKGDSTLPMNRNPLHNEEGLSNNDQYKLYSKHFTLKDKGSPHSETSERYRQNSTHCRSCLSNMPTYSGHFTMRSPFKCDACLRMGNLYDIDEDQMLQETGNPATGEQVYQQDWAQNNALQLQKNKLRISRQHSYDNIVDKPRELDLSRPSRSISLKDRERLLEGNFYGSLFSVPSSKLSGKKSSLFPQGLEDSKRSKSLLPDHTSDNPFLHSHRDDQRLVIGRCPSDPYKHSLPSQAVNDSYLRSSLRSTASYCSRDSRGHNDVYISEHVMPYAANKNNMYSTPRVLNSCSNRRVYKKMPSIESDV
# Assay: Inhibition of NMDA evoked cytosolic calcium elevation in HEK 293 cells expressing recombinant NR1-3/NR2A
# Type: cell-based
# Settings: 10 μM, NR1-3/NR2A subunit expressing cells
# Protocol: (2003)]. […] Compounds were tested for their inhibitory action on NMDA evoked cytosolic calcium elevations in fluorescent calcium measurements. Studies were performed 48-72 h after addition of the inducing agent. Ketamine (500 μM) was also present during the induction in order to prevent cytotoxicity.
# as §1
row,Compound,NR1-3/NR2A % inhibition at 10 μM [%]
1,"O=C(CCN1CCC(Cc2ccc(F)cc2)CC1)c1ccc2[nH]c(=O)oc2c1 [EMD 95885, reference compound]",0.1

# Same assay, conditions: HEK293; 10 μM, NR1-3/NR2A subunit expressing cells
row,Compound,inhibition at 10 µM [%]
1,"C[C@@H]([C@@H](O)c1ccc(O)cc1)N1CCC(O)(c2ccccc2)CC1 [CP 101,606, (1S,2S)-1-(4-hydroxyphenyl)-2-(4-hydroxy-4-phenylpiperidine-1-yl)-1-propanol]",2.5
2,"CC(C(O)c1ccc(O)cc1)N1CCC(Cc2ccccc2)CC1 (stereo not drawn) [Erythro-ifenprodil, erythro-2-(4-benzylpiperidino)-1-(4-hydroxyphenyl)-1-propanol]",-2.7
3,"CC(CN1CCC(Cc2ccccc2)CC1)C(O)c1ccc(O)cc1 (stereo not drawn) [Ro 25.6981, R-(R*,S*)-1-(4-hydroxyphenyl)-2-methyl-3-[4-(phenylmethyl)piperidin-1-yl]-1-propanol, reference compound]",1

# Same assay, conditions: HEK293; 15 μM, NR1-3/NR2A subunit expressing cells
row,Compound,inhibition at 15 µM [%]
1,COc1cccc(OC)c1CNC(=N)c1cc2ccccc2[nH]1 [Compound 36],32.1
2,COc1ccc2[nH]c(C(=N)NCc3cccnc3)cc2c1 [Compound 134],6.1
3,COc1ccc2[nH]c(C(=N)NCc3c(OC)cccc3OC)cc2c1 [Compound 147],21.7

# Tested on: not given
# Assay: not given
# Settings: cited from earlier work
row,Compound,effect on neuropathic pain in clinical trial
1,"C[C@@H]([C@@H](O)c1ccc(O)cc1)N1CCC(O)(c2ccccc2)CC1 [CP 101,606, (1S,2S)-1-(4-hydroxyphenyl)-2-(4-hydroxy-4-phenylpiperidine-1-yl)-1-propanol]",reduced neuropathic pain

# Same assay, conditions: no psychotomimetic effects, hallucinations, dysphoria; cited from earlier work
row,Compound,tolerability in clinical trial
1,"C[C@@H]([C@@H](O)c1ccc(O)cc1)N1CCC(O)(c2ccccc2)CC1 [CP 101,606, (1S,2S)-1-(4-hydroxyphenyl)-2-(4-hydroxy-4-phenylpiperidine-1-yl)-1-propanol]",well tolerated
